Test results: the supplement of paper PMC10307832

Experiments:
Assay in all cases: relative viability (nuclei count vs DMSO), 5 days (fraction); higher = more cells survive
[1] = compound: CCN1C(=O)C2=CC(=C(N=C2N(C1=O)C3CC3)N)C(=O)N + CC1(C)CCC(c2ccc(Cl)cc2)=C(CN2CCN(c3ccc(C(=O)NS(=O)(=O)c4ccc(N[C@H](CCN5CCOCC5)CSc5ccccc5)c(S(=O)(=O)C(F)(F)F)c4)cc3)CC2)C1 [Navitoclax] (partner 0.5 µM)
In short: (§1)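 Dosing by pin tool came one day after lung cancer cell lines were seeded in 1536-well plates, using either one drug or a fixed anchor-drug dose plus five library-drug doses (not always all listed) in √10 steps. After 5 days, nuclei were counted on 4× images. Relative viability is treated-well nuclei count divided by vehicle-well nuclei count, and values are medians of duplicate plates.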

[2] = compound: CCN1C(=O)C2=CC(=C(N=C2N(C1=O)C3CC3)N)C(=O)N + CS(=O)(=O)CCNCc1ccc(-c2ccc3ncnc(Nc4ccc(OCc5cccc(F)c5)c(Cl)c4)c3c2)o1 [Lapatinib] (partner 2 µM)
In short: as §1

[3] = compound: CCN1C(=O)C2=CC(=C(N=C2N(C1=O)C3CC3)N)C(=O)N + CC(=O)Nc1cccc(-n2c(=O)n(C3CC3)c(=O)c3c(Nc4ccc(I)cc4F)n(C)c(=O)c(C)c32)c1 [Trametinib] (partner 0.02 µM)
In short: as §1

[4] = compound: CCN1C(=O)C2=CC(=C(N=C2N(C1=O)C3CC3)N)C(=O)N + COc1cc2c(Oc3ccc(NC(=O)C4(C(=O)Nc5ccc(F)cc5)CC4)cc3F)ccnc2cc1OCCCN1CCOCC1 [Foretinib] (partner 0.25 µM)
In short: as §1

[5] = compound: CCN1C(=O)C2=CC(=C(N=C2N(C1=O)C3CC3)N)C(=O)N + Cc1nc(Nc2ncc(C(=O)Nc3c(C)cccc3Cl)s2)cc(N2CCN(CCO)CC2)n1 [Dasatinib] (partner 0.075 µM)
In short: as §1

Cell Line	relative viability ([1]; first compound 0.253 µM)	relative viability ([1]; first compound 0.8 µM)	relative viability ([1]; first compound 2.53 µM)	relative viability ([1]; first compound 8 µM)	relative viability ([2]; first compound 0.253 µM)	relative viability ([2]; first compound 0.8 µM)	relative viability ([2]; first compound 2.53 µM)	relative viability ([2]; first compound 8 µM)	relative viability ([3]; first compound 0.253 µM)	relative viability ([3]; first compound 0.8 µM)	relative viability ([3]; first compound 2.53 µM)	relative viability ([3]; first compound 8 µM)	relative viability ([4]; first compound 0.253 µM)	relative viability ([4]; first compound 2.53 µM)	relative viability ([4]; first compound 8 µM)	relative viability ([5]; first compound 0.253 µM)	relative viability ([5]; first compound 2.53 µM)	relative viability ([5]; first compound 8 µM)	relative viability ([4]; first compound 0.8 µM)	relative viability ([5]; first compound 0.8 µM)
HCC-44	1.04	0.994	0.985	1.02	0.927	1.01	1.03	0.986	1.18	0.975	1.06	1.04								
HCC-78	0.436	0.788	0.691	0.94	0.581	0.626	0.937	0.719	0.706	0.733	0.812	0.788	0.532	0.582	0.502	0.368	0.595	0.365		
HCC-366	0.985	0.991	1.1	1.05	1.06	0.966	0.988	1.05	0.416	0.433	0.348	0.343		0.951	0.919		0.518	0.611	0.91	0.656
HCC-827	1	1.01	0.98	0.954	0.183	0.219	0.17	0.206	0.525	0.538	0.537	0.544	0.982	0.99	1.06	0.348	0.266	0.284	0.993	0.348
HOP-62	1.08	1.11	0.969	0.924	0.844	1.29	1.01	1.1	0.312	0.376	0.333	0.416	1	1.03	1.03	0.715	0.695	0.598	1.11	0.614
IA-LM	0.815	0.583	0.768	0.791	0.877	0.902	0.88	0.747					1.21	0.963	1.44				1.03	
LC-2-ad	0.416	0.45	0.462	0.518	0.841	0.747	0.943	0.903	0.918	0.865	0.845	0.871	0.926	0.986	0.94	0.537	0.652	0.698	0.855	0.526
LCLC-103H									0.741	0.663	0.705	0.662	0.852	0.728	0.922	0.453	0.457	0.445	0.721	0.426
NCI-H358					0.424	0.417	0.526	0.612	0.121	0.134	0.144	0.138	0.704	0.771	0.676	0.157	0.189	0.17	0.762	0.148
NCI-H441	0.768	0.482	0.64	0.649					0.508	0.441	0.516	0.532	0.925	0.956	0.995	0.734	0.728	0.683	0.82	0.585
NCI-H650					1.03	0.883	1.07	0.872	0.994	0.929	0.905	1.04	0.969	0.954	0.944	0.434	0.424	0.373	1.04	0.349
NCI-H661					0.526	0.631	0.428	0.5	0.591	0.567	0.546	0.561	0.989	0.939	1.01	0.911	0.898	0.895	1.08	0.911
NCI-H1563					0.808	0.91	0.95	0.885					0.901	0.933	1.01	0.467	0.46	0.422	0.926	0.41
NCI-H1703	1.01	1.04	1.14	1.46	1.01	0.946	1.09	1.43					0.393	0.328	0.372				0.432	
NCI-H1792	0.648	0.533	0.834	0.564	0.993	0.859	1.1	0.769	0.457	0.332	0.346	0.39				0.763	0.879	0.567		0.826
NCI-H2342									0.795	0.8	0.756	0.857	1.08	1.1	1.03	0.27	0.349	0.323	0.941	0.294
SW 900									0.81	0.864	0.75	0.641	1.03	0.837	1.03	0.447	0.68	0.511	0.996	0.599
